In PubChem BioAssay (NCI):
Several values for one entry are separate records, joined by “and”; a condition that tells them apart may be missing. Identical values can stand only once.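 Each compound was tested at five concentrations against cells in 96-well plates for 48 hours. GI50 = concentration required for 50% inhibition of growth. TGI: concentration producing complete growth inhibition.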

Key:
Experiment in all cases: growth of human tumour cells (NCI), 48 h
OVCAR-5 ovarian = system: OVCAR-5 ovarian
SF-539 CNS = system: SF-539 CNS
SK-MEL-2 melanoma = system: SK-MEL-2 melanoma
RPMI-8226 leukemia = system: RPMI-8226 leukemia
U251 CNS = system: U251 CNS
HT29 colon = system: HT29 colon
SNB-75 CNS = system: SNB-75 CNS
NCI/ADR-RES ovarian = system: NCI/ADR-RES ovarian
KM12 colon = system: KM12 colon
HS 578T breast = system: HS 578T breast

SMILES	TGI (OVCAR-5 ovarian)	TGI (SF-539 CNS)	TGI (SK-MEL-2 melanoma)	TGI (RPMI-8226 leukemia)	TGI (U251 CNS)	TGI (HT29 colon)	TGI (SNB-75 CNS)	GI50 (NCI/ADR-RES ovarian)	TGI (NCI/ADR-RES ovarian)	GI50 (OVCAR-5 ovarian)	GI50 (KM12 colon)	TGI (KM12 colon)	GI50 (SF-539 CNS)	GI50 (SK-MEL-2 melanoma)	GI50 (RPMI-8226 leukemia)	GI50 (U251 CNS)	GI50 (HS 578T breast)	TGI (HS 578T breast)	GI50 (HT29 colon)	GI50 (SNB-75 CNS)
CC(Sc1ccccc1)C(CO)(CO)[N+](=O)[O-] (configuration not stated)	36.9 µM	31 µM	54 µM	49.2 µM	26 µM	32.9 µM	35.4 µM													
O=C1c2cc3c(cc2-c2c1c1ccc(Cl)cc1c(=O)n2C[C@H](O)[C@@H](O)[C@H](O)CO)OCO3	1.29 µM	0.0602 µM	0.432 µM	0.989 µM	0.0505 µM	0.283 µM		0.0335 µM	1.91 µM	0.0524 µM	0.138 µM	> 100 µM	0.016 µM	0.194 µM	0.24 µM	< 0.01 µM	0.328 µM	> 100 µM	0.0498 µM	
O=C(O)C(CSC(c1ccccc1)(c1ccccc1)c1ccccc1)N=Cc1cccs1 (configuration not stated)	> 100 µM	9.21 µM	27.4 µM	> 100 µM	> 62.4 µM	18.6 µM	> 79.5 µM		63.8 µM			> 60.7 µM						> 34.2 µM		
O=S1(=O)OC(c2ccc(O)cc2)(c2ccc(O)cc2)c2ccccc21	> 100 µM	> 100 µM	> 100 µM	> 100 µM	> 100 µM	> 100 µM	> 100 µM		> 100 µM			> 100 µM						> 100 µM		
N#CC(c1ccccc1)N1CCCN(C(C#N)c2ccccc2)C1c1ccccc1O (configuration not stated)	> 100 µM	> 100 µM	> 100 µM	> 100 µM	> 100 µM	> 100 µM	> 100 µM		> 100 µM			> 100 µM						> 100 µM		
Cc1cc(O)c(C(C)C)cc1CN1CCCCC1	> 100 µM	> 100 µM		> 100 µM	> 100 µM	> 100 µM	> 100 µM		> 100 µM			> 100 µM						> 100 µM		
Clc1ccc(Nc2nc(Cl)c3[nH]cnc3n2)cc1Cl	> 100 µM		59.5 µM	83 µM	> 100 µM	43.9 µM	52.3 µM		> 100 µM			64.7 µM						56.3 µM		
CN(C)CCn1c(=O)c2ccc3c4c(nn3CCN(C)C)c3cc(N)ccc3n(c1=O)c24	0.111 µM	0.579 µM	0.089 µM	60.7 µM	3.39 µM		0.0971 µM		0.749 µM			0.63 µM						1.03 µM		
O=S(=O)(O)c1cccc2c(N=Nc3c(O)ccc4ccccc34)cccc12	> 100 µM		> 100 µM	> 100 µM	> 100 µM	> 100 µM	> 100 µM		> 100 µM			> 100 µM						> 100 µM		
N[C@H]1CCN(c2c(F)cc3c(=O)c(C(=O)O)cn4c3c2Oc2cc3c(ccc5ccccc53)cc2-4)C1	> 100 µM	10.6 µM	43.5 µM	4 µM	5.02 µM	7.34 µM			> 100 µM			> 100 µM								
CC[C@@]1(O)C(=O)OCc2c1cc1n(c2=O)Cc2c-1nc1ccc(O)cc1c2CC[Si](C)(C)C	0.267 µM and 0.375 µM		0.576 µM and 1.17 µM	0.348 µM					1.84 µM and 1.56 µM			0.0659 µM		0.0742 µM						
COc1ccc(/C=C(\C#N)c2nc(N)nc(N3N=C(C)CC3(C)C)n2)c(O)c1	34.2 µM	29.1 µM	38.9 µM	98.7 µM	94.1 µM	44.5 µM			97.3 µM			29.2 µM						40 µM		
CC(=O)N(C)c1ccc2c(ccc[n+]2[O-])c1[N+](=O)[O-]	> 100 µM	> 100 µM	> 100 µM	> 100 µM	> 100 µM	> 100 µM	> 100 µM					> 100 µM								
CC1(C)CCC2(C(=O)OC3OC(CO)C(O)C(O)C3O)CCC3(C)C(=CCC4C5(C)CCC(OC6OC(CO)C(O)C(O)C6O)C(C)(C)C5CCC43C)C2C1 (configuration not stated)	> 25 µM	12.8 µM	14.8 µM	10.7 µM	10.4 µM	> 25 µM	> 25 µM					19 µM						> 25 µM		
C[C@]12CCC(=O)C=C1CC[C@@H]1[C@@H]2[C@@H](O)C[C@@]2(C)[C@H]1CC[C@]2(O)C(=O)CO	> 100 µM	> 100 µM	> 100 µM	> 100 µM	> 100 µM	> 100 µM	> 100 µM		> 100 µM			> 100 µM						> 100 µM		
Nc1nc(N)c2c(n1)NC(c1ccccc1)CC(/C=C/c1ccc(Cl)cc1)=N2 (configuration not stated)	32.5 µM	31.2 µM	42.7 µM	12.7 µM	> 100 µM	15.2 µM	33.9 µM		11.3 µM			13.6 µM						9.94 µM		
Nc1ccccc1N/C(=C\C(=O)C(Cl)(Cl)Cl)c1ccccc1	41.5 µM	36.1 µM	28.6 µM	86 µM	32 µM	> 100 µM	> 100 µM		> 100 µM			> 100 µM						> 100 µM		

SMILES	TGI (OVCAR-5 ovarian)	TGI (SF-539 CNS)	TGI (SK-MEL-2 melanoma)	TGI (RPMI-8226 leukemia)	TGI (U251 CNS)	TGI (HT29 colon)	TGI (SNB-75 CNS)	GI50 (NCI/ADR-RES ovarian)	TGI (NCI/ADR-RES ovarian)	GI50 (OVCAR-5 ovarian)	GI50 (KM12 colon)	TGI (KM12 colon)	GI50 (SF-539 CNS)	GI50 (SK-MEL-2 melanoma)	GI50 (RPMI-8226 leukemia)	GI50 (U251 CNS)	GI50 (HS 578T breast)	TGI (HS 578T breast)	GI50 (HT29 colon)	GI50 (SNB-75 CNS)
CCOC(=O)C1CCn2c(nc3c2c(=O)n(C)c(=O)n3C)S1 (configuration not stated)	> 100 µM	> 100 µM	> 100 µM	> 100 µM	> 100 µM	> 100 µM	> 100 µM													
O=[N+]([O-])c1ccc2c(c1)c(N=NC(=S)NC1CCCCC1)c(O)n2CN1CCOCC1	23.8 µM	25.4 µM	25.9 µM	52.6 µM	17.3 µM	17.9 µM	24.2 µM		18.7 µM			18 µM						45.8 µM		
O=C(CCN1CC2CCC(CC2)C1)c1cccs1	33.1 µM	39.2 µM	33.6 µM	12.4 µM	33.5 µM	61.6 µM	35 µM		62.1 µM			40.7 µM						71.9 µM		
CCC(C)C1NC(=O)C2CCCN2C(=O)C(CC2CO2)OC(=O)CCNC(=O)C(C)N(C)C(=O)C(C(C)C)N(C)C1=O (configuration not stated)	> 100 µM	> 100 µM	0.0341 µM		> 100 µM	> 100 µM			> 100 µM			> 100 µM						> 100 µM		
CN1C2CCC1C(C(O)c1ccccc1[N+](=O)[O-])C(=O)C2 (configuration not stated)	> 100 µM	80.4 µM	> 100 µM	> 100 µM	> 100 µM	> 100 µM			91.9 µM			> 100 µM						> 100 µM		
C/C(=N\NC(=O)c1cccnc1)c1cccc(/C(C)=N/NC(=O)c2cccnc2)n1	8.28 µM	13.6 µM	7.02 µM		> 100 µM	> 100 µM	42.5 µM					> 100 µM		2.33 µM					2.63 µM	10.3 µM
O=[n+]1c2c(n([O-])c3ccccc31)-c1cccc3cccc-2c13					> 100 µM	> 100 µM	94.7 µM		> 100 µM			> 100 µM						> 100 µM		
COC(=O)C1C(C)N1C (configuration not stated)		> 100 µM		> 100 µM	> 100 µM	> 100 µM	> 100 µM					> 100 µM								
C[C@]12CC[C@@H]3c4ccccc4CC[C@H]3[C@@H]1CC[C@@H]2O		> 100 µM		> 100 µM	> 100 µM		> 100 µM					> 100 µM								
O=S(=O)(/N=C(\NO)Nc1ccc(Cl)cc1)c1ccc(S(=O)(=O)c2ccccc2)s1	63.7 µM	63.7 µM	37.4 µM	35.8 µM	60.3 µM	57.7 µM			> 100 µM			60.4 µM						96.9 µM		
NCCNc1nc(N2CCCC2)c2nc(Cl)c(NCc3ccccc3)nc2n1	7.88 µM	3.79 µM	3.37 µM	3.84 µM	2.87 µM	5.46 µM	3.49 µM		33.1 µM			2.93 µM						12.8 µM		
NNC(=O)c1ccccc1Nc1ccccc1C(=O)NN	> 100 µM	> 100 µM	> 100 µM	> 100 µM	> 100 µM	> 100 µM	> 100 µM		> 100 µM			> 100 µM						> 100 µM		
[O-][N+](CCO)(CCO)c1ncnc2nc[nH]c12	> 100 µM		> 100 µM	> 100 µM	> 100 µM	> 100 µM	> 100 µM		> 100 µM			> 100 µM						> 100 µM		
COC(=O)C1C(O)CCC2CN3CCc4c([nH]c5cccc(OC)c45)C3CC21 (configuration not stated)	> 100 µM	> 100 µM	> 100 µM	> 100 µM	> 100 µM	> 100 µM	> 100 µM					> 100 µM						> 100 µM		
OCCOCn1cc(Cn2ncc3c(SCc4ccccc4)ncnc32)nn1	> 100 µM	> 100 µM	> 100 µM		> 100 µM	> 100 µM	> 100 µM		> 100 µM			> 100 µM						> 100 µM		
COc1c2c(cc3c1C(O)N1CC[C@]34[C@H]3O[C@H]3[C@H](OC)C[C@@H]14)OCO2 (some centres not stated)	> 100 µM	> 100 µM	83.8 µM	> 100 µM	> 100 µM	> 100 µM	> 100 µM		> 100 µM			> 100 µM						> 100 µM		
CC(=O)OC1CC(O)CC2=CCC3C4CCC(C(C)(O)C(O)CC5COC(=O)C5C)C4(C)CCC3C21C (configuration not stated)	> 25 µM	> 25 µM	> 25 µM	> 25 µM	> 25 µM	> 25 µM	> 25 µM					> 25 µM						> 25 µM		
